This is an account of results in PubChem BioAssay (NCI).

Among the test systems are RPMI-8226 leukemia; OVCAR-3 ovarian; SK-MEL-28 melanoma; HOP-62 NSCLC; 786-0 renal; SNB-75 CNS; ACHN renal; OVCAR-8 ovarian; RXF 393 renal; A549 NSCLC; K-562 leukemia; HCC-2998 colon; SN12C renal.
Holding throughout (assay): NCI tumour cell line growth inhibition, 48 h

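Following 48 hours of exposure in 96-well plates, responses at five concentrations were used to interpolate endpoints linearly. The concentration for full growth arrest is given as TGI.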

For `N#Cc1nc(COCCOCc2ccc(F)cc2)oc1N`, the TGI with RPMI-8226 leukemia, with OVCAR-3 ovarian, with SK-MEL-28 melanoma, in the assay with HOP-62 NSCLC, in the assay on 786-0 renal and in the assay with SNB-75 CNS was more than 100 µM throughout. The TGI in the assay with ACHN renal, in the assay with OVCAR-8 ovarian, in the assay with RXF 393 renal, in the assay with A549 NSCLC, in the assay with K-562 leukemia and with HCC-2998 colon was more than 100 µM each time. This compound gave a TGI with SN12C renal of more than 100 µM.
For `CCC(=O)N/N=C(\C=C\c1cccc(O)c1)c1sc(Nc2ccc(C)cc2[N+](=O)[O-])nc1C`, the TGI with RPMI-8226 leukemia, with OVCAR-3 ovarian, in the assay with SK-MEL-28 melanoma, in the assay on HOP-62 NSCLC, in the assay with 786-0 renal and with SNB-75 CNS was more than 100 µM throughout. In addition, the TGI with ACHN renal, in the assay with OVCAR-8 ovarian, in the assay on RXF 393 renal, in the assay on A549 NSCLC, with K-562 leukemia and in the assay with HCC-2998 colon was more than 100 µM throughout. In the assay on SN12C renal, this compound returned a TGI of more than 100 µM.
Turning to `CCOC(OC1=C(C#N)CCCC1)C(C)[Se]c1ccccc1` (stereo not drawn), the TGI in the assay on RPMI-8226 leukemia was 84 µM; in the assay on OVCAR-3 ovarian, more than 100 µM; in the assay with SK-MEL-28 melanoma, 71.6 µM; in the assay on HOP-62 NSCLC it was more than 100 µM; in the assay on 786-0 renal it was 31.4 µM; in the assay with SNB-75 CNS, more than 100 µM. For the same compound, the TGI in the assay on ACHN renal was more than 100 µM; with OVCAR-8 ovarian it was 63.9 µM; in the assay with RXF 393 renal, 29.8 µM; in the assay on A549 NSCLC it was more than 100 µM; in the assay with K-562 leukemia, more than 100 µM; with HCC-2998 colon it was more than 100 µM. Besides, the TGI in the assay on SN12C renal was 89.9 µM.
Turning to `COC(=O)c1ccc(NCc2cc(O)ccc2O)cc1`, the TGI in the assay with RPMI-8226 leukemia was determined as 34.7 µM; in the assay on OVCAR-3 ovarian it was 27.6 µM; in the assay with SK-MEL-28 melanoma it was 34.8 µM; in the assay with HOP-62 NSCLC it was 30.9 µM; with 786-0 renal it was 22.3 µM; with SNB-75 CNS, 38.9 µM. Moreover, the TGI was 24 µM in the assay on ACHN renal; 40.1 µM with OVCAR-8 ovarian; 20.2 µM in the assay with RXF 393 renal; 39.2 µM in the assay on A549 NSCLC; 15.1 µM in the assay with K-562 leukemia; 29.5 µM in the assay with HCC-2998 colon. In the assay on SN12C renal, the TGI worked out at 41.2 µM.
For the compound `COc1ccc(CCNC(=O)[C@H]2CCCC[C@@H]2CCO)cc1OC`, the TGI in the assay on RPMI-8226 leukemia, in the assay on OVCAR-3 ovarian, with SK-MEL-28 melanoma, in the assay with HOP-62 NSCLC, in the assay on 786-0 renal and in the assay on SNB-75 CNS was more than 100 µM throughout. In addition, the TGI in the assay on ACHN renal, with OVCAR-8 ovarian, in the assay on RXF 393 renal, in the assay on A549 NSCLC, with K-562 leukemia and in the assay on HCC-2998 colon was more than 100 µM each time. This compound displayed a TGI in the assay on SN12C renal of more than 100 µM.
`Cc1cc(-c2nc3cccc(F)c3s2)ccc1N`: the TGI was more than 100 µM with RPMI-8226 leukemia; more than 100 µM with OVCAR-3 ovarian; more than 100 µM with SK-MEL-28 melanoma; more than 100 µM in the assay with HOP-62 NSCLC; more than 100 µM with 786-0 renal; 99.4 µM in the assay on SNB-75 CNS. In addition, the TGI with ACHN renal, with OVCAR-8 ovarian, in the assay on RXF 393 renal, in the assay on A549 NSCLC, in the assay on K-562 leukemia and in the assay on HCC-2998 colon was more than 100 µM in each case. The TGI in the assay with SN12C renal is more than 91.1 µM.
In the case of `CC1=NN(C(=O)CC(=O)Nc2cccc(Cl)c2)C(=O)C1N=Nc1ccc(C(=O)O)cc1` (stereo not drawn), the TGI with RPMI-8226 leukemia, with OVCAR-3 ovarian, in the assay on SK-MEL-28 melanoma, in the assay on HOP-62 NSCLC, with 786-0 renal and in the assay on SNB-75 CNS was more than 100 µM in each case. The TGI in the assay with ACHN renal, with OVCAR-8 ovarian, in the assay on RXF 393 renal, in the assay on A549 NSCLC, in the assay on K-562 leukemia and in the assay on HCC-2998 colon was more than 100 µM each time. In the assay with SN12C renal, this compound showed a TGI of more than 100 µM.
As to `Cc1ccc(NC(=O)C(=O)Cc2cc[n+]([O-])cc2)cc1`, the TGI with RPMI-8226 leukemia, in the assay with OVCAR-3 ovarian, with SK-MEL-28 melanoma, in the assay with HOP-62 NSCLC, with 786-0 renal and in the assay on SNB-75 CNS was more than 100 µM throughout. For the same compound, the TGI in the assay with ACHN renal, with OVCAR-8 ovarian, with RXF 393 renal, in the assay on A549 NSCLC, in the assay with K-562 leukemia and with HCC-2998 colon was more than 100 µM throughout. The compound further yielded a TGI with SN12C renal of more than 100 µM.
`Cc1cc(N(CCC#N)CCC#N)ccc1C=Nc1ccc(C(=O)NN2C(=O)/C(=C/c3ccc(N(CCC#N)CCC#N)cc3)N=C2c2cc([N+](=O)[O-])ccc2Cl)cc1`: the TGI in the assay with RPMI-8226 leukemia, in the assay on OVCAR-3 ovarian, in the assay on SK-MEL-28 melanoma, in the assay on HOP-62 NSCLC, with 786-0 renal and in the assay on SNB-75 CNS was more than 100 µM in each case. Moreover, the TGI in the assay on ACHN renal, in the assay on OVCAR-8 ovarian, in the assay on RXF 393 renal, in the assay with A549 NSCLC, in the assay with K-562 leukemia and in the assay with HCC-2998 colon was more than 100 µM throughout. This compound showed a TGI in the assay on SN12C renal of more than 100 µM.
Turning to `Cc1nc2c(=O)n3c4c(cccc4c2o1)CCC3`, the TGI in the assay on RPMI-8226 leukemia, in the assay on OVCAR-3 ovarian, in the assay on SK-MEL-28 melanoma, with HOP-62 NSCLC, in the assay with 786-0 renal and in the assay on SNB-75 CNS was more than 100 µM in each case. Besides, the TGI in the assay with ACHN renal, with OVCAR-8 ovarian, in the assay on RXF 393 renal, with A549 NSCLC, in the assay with K-562 leukemia and with HCC-2998 colon was more than 100 µM throughout. Further, the TGI in the assay on SN12C renal is more than 100 µM.
On to `CCOC(=O)/C(C#N)=C/c1ccc2c(c1)CC1(C2)Cc2cc(CC)c(C(C)O)cc2C1` (stereo not drawn), for which the TGI is 51.6 µM in the assay with RPMI-8226 leukemia; 22.4 µM with OVCAR-3 ovarian; 38.9 µM in the assay on SK-MEL-28 melanoma; 36 µM in the assay with HOP-62 NSCLC; 39 µM with 786-0 renal; 46.3 µM in the assay with SNB-75 CNS. In addition, the TGI in the assay with ACHN renal was more than 85.1 µM; in the assay on OVCAR-8 ovarian, 44.4 µM; with RXF 393 renal, 38.5 µM; in the assay with A549 NSCLC, more than 100 µM; in the assay on K-562 leukemia, more than 52.5 µM; in the assay with HCC-2998 colon, more than 80.9 µM. The compound further registered a TGI with SN12C renal of 32.4 µM.
In the case of `CCC(=O)C(C(C)/C=C/CCSc1ccccc1)C(O)CCCCCC(=O)OC` (stereo not drawn), the TGI with RPMI-8226 leukemia, with OVCAR-3 ovarian, in the assay with SK-MEL-28 melanoma, in the assay with HOP-62 NSCLC, in the assay with 786-0 renal and in the assay on SNB-75 CNS was more than 100 µM in each case. Moreover, the TGI in the assay with ACHN renal, with OVCAR-8 ovarian, in the assay on RXF 393 renal, in the assay with A549 NSCLC, in the assay on K-562 leukemia and in the assay with HCC-2998 colon was more than 100 µM each time. The TGI with SN12C renal is more than 100 µM.
Take `CCOP(=O)(OCC)/C(C#N)=C/c1c[nH]c2ccccc12`: the TGI in the assay on RPMI-8226 leukemia, in the assay with OVCAR-3 ovarian, with SK-MEL-28 melanoma, with HOP-62 NSCLC, in the assay on 786-0 renal and with SNB-75 CNS was more than 100 µM in each case. Also, the TGI in the assay with ACHN renal, in the assay on OVCAR-8 ovarian, with RXF 393 renal, in the assay on A549 NSCLC, in the assay with K-562 leukemia and in the assay on HCC-2998 colon was more than 100 µM in each case. The compound also yielded a TGI in the assay on SN12C renal of more than 100 µM.
As to `CC[C@@H]1/C=C/C=C/C[C@H](C)[C@@H](O)[C@](C)(O)C(=O)[C@H](C)[C@@H](O)[C@H](C)C(=O)[C@H](C)[C@@H](O)[C@H](C)/C=C/C(=O)O[C@H]2[C@@H](C)[C@@H](CC1)O[C@@]1(CC[C@@H](C)[C@@H](CC(C)O)O1)[C@@H]2C` (stereo partly drawn), the TGI was found to be 10.3 µM in the assay with RPMI-8226 leukemia; 3.95 µM in the assay on OVCAR-3 ovarian; 25.3 µM in the assay with SK-MEL-28 melanoma; 5.47 µM in the assay on HOP-62 NSCLC; 4.45 µM in the assay on 786-0 renal; 9.11 µM with SNB-75 CNS. The TGI in the assay on ACHN renal was 8.69 µM; in the assay on OVCAR-8 ovarian, 8.85 µM; in the assay with RXF 393 renal it was 4.06 µM; with A549 NSCLC it was 9.1 µM; with K-562 leukemia, more than 38.2 µM; in the assay with HCC-2998 colon, 6.68 µM. This compound showed a TGI in the assay with SN12C renal of 4.95 µM.
On to `S=C1N=C(Cl)/C(=C\c2ccccc2)N1`, for which the TGI in the assay on RPMI-8226 leukemia, in the assay on OVCAR-3 ovarian, in the assay on SK-MEL-28 melanoma, in the assay on HOP-62 NSCLC, in the assay on 786-0 renal and in the assay with SNB-75 CNS was more than 100 µM throughout. The TGI with ACHN renal, with OVCAR-8 ovarian, in the assay on RXF 393 renal, in the assay on A549 NSCLC, in the assay with K-562 leukemia and in the assay with HCC-2998 colon was more than 100 µM throughout. In the assay with SN12C renal, this compound showed a TGI of more than 100 µM.
Regarding `COc1ccc(NC2CC(C)N(C(=O)c3ccccc3)O2)cc1` (stereo not drawn), the TGI in the assay on RPMI-8226 leukemia, in the assay with OVCAR-3 ovarian, with SK-MEL-28 melanoma, in the assay with HOP-62 NSCLC, in the assay with 786-0 renal and in the assay with SNB-75 CNS was more than 10 µM throughout. Moreover, the TGI in the assay on ACHN renal, in the assay with OVCAR-8 ovarian, with RXF 393 renal, with A549 NSCLC, with K-562 leukemia and with HCC-2998 colon was more than 10 µM each time. This compound also registered a TGI with SN12C renal of more than 10 µM.
